Results: patent publication US20140086881A1, “GOOD HEALTHY CELLS FOUND IN PROTEINS, THEIR APPLICATIONS, AND PROCESS OF MAKING A MEDIUM TO HARVEST THE CELLS” (priority 2012, published 2014)
Read-outs that look alike come from different tables or passages of the source.

Tests used:
[1] = tested on: Adjuvant-Induced Arthritis (AIA); assay: Adjuvant-Induced Arthritis (AIA) in Lewis rats; conditions: 35 days and 45 days treatment sections
[2] = tested on: HBV; assay: HBV mouse hydrodynamic injection (HDI) model; assay type: in vivo, BALB/c mice; conditions: therapeutically-treated mice, from day 3 post HDI to the end
Source text: Hydrodynamic injection (HDI) is an in vivo gene delivery technology. It refers to transiently transfect the mouse liver cells with a foreign gene via tail vein injection of a large volume saline containing plasmid within a few seconds. Taking the advantage of the liver-targeting manner of hydrodynamic injection, a single hydrodynamic injection of a replication-competent HBV DNA, could result in HBV replication in mouse liver shortly. This HBV hydrodynamic injection model on immunocompetent mice is a convenient and reproducible animal model for anti-HBV compound screening in vivo, which has been successfully established in WuXi ID department.
• 3.1 Hydrodynamic injection and compound administration • 3.1.1. From day −7 to day 0, all 5 mice in group 4 were administrated i.p./i.v. with test article daily for 8 days according to Table 14.2. • 3.1.2. On day 0, all groups of mice were hydrodynamicly injected via tail vein with pcDNA3.1/HBV plasmid DNA in a volume of normal saline equal to 8% of a mouse body weight. […]
• 3.2.1.1 Isolate DNA from 50 μl plasma using QIAamp 96 DNA Blood Kit. […] Run qPCR for HBV DNA quantification. a) Dilute HBV plasmid standard by 10-fold from 10^7 copies/μl to 10 copies/μl. b) Prepare qPCR mix as shown below. […]
HBV DNA quantity=DNA determined by HBV primer-DNA determined by plasmid primer. […]

[3] = tested on: HBV in HepG2.2.15; assay: Anti-HBV potency in stable HBV cell line (HBV DNA real time PCR); assay type: cell-based; conditions: Hepatitis B virus
Procedure: Lamivudine is diluted with 3-fold for 9 concentrations.
i) Cell culture medium: RPM 1640-4% FBS-1% Pen/Strep-1% Glutamine ii) HepG2.2.15 cell culture: Grow the cells in T75 flask. Incubated at 37° C., 95% humidity, 5% CO2.
f) Refresh protein-containing medium on day 3 of drug treatment. g) Collect culture media from the HepG2.2.15 plates on day 6 followed by HBV DNA extraction using QIAamp 96 DNA Blood Kit (QIAGEN #51161). 2) Real time PCR for HBV DNA quantification. a) Dilute HBV plasmid standard by 10-fold from 0.1 ng/ul to 0.000001 ng/ul. b) Prepare realtime PCR mix as shown blow.
c) Add 15 ul/well PCR mix to 96-well optical reaction plates. d) Add 10 ul of the diluted plasmid standard to C12-H12. […]
3) Data analysis: A standard curve is generated by plotting Ct value vs. the amount of the HBV plasmid standard, and the quantity of each sample is estimated based on the Ct value projection on the standard curve; percent of HBV inhibition by protein or compound is calculated using the following equation: % Inh.=[1−(HBV quantity of sample−HBV quantity of HepG2 control)/(HBV quantity of 0% Inhibition control−HBV quantity of HepG2 control)]*100.

[4] = tested on: HCV 2a replicon; assay: microbe, parasite or virus in culture; assay type: cell-based; conditions: Hepatitis C virus, read-out: EC50 (uM) 2a
Procedure: (§1) The cells are counted using hemocytometer.
(§2) Incubate plate at 5% CO2, 37° C. for 4 hours.
(§3) Dose-response curves are plotted using Prism.

[5] = tested on: HCV 1b replicon; assay: microbe, parasite or virus in culture; assay type: cell-based; conditions: Hepatitis C virus, read-out: EC50 (uM) 1b
Procedure: as §1, §2, §3

[6] = tested on: HCV 1a replicon; assay: microbe, parasite or virus in culture; assay type: cell-based; conditions: Hepatitis C virus, read-out: EC50 (uM) 1a
Procedure: as §1, §2, §3

[7] = tested on: atherosclerotic model; conditions: for Animal Wounded, Total: n = 10, reason: fighting each other; for Animal Dead, Total: n = 10 ApoE ko mice, high fat diet
Source text: 10 ApoE ko mice were fed with regular chow diet and used as negative control group. 50 ApoE ko mice were fed with high fat diet (35% kcal fat, 1% cholesterol) for 8 weeks, and then the plasma samples were collected for lipid profile measurement before the treatment. 50 ApoE ko mice were assigned into 5 groups based on the fasting overnight plasma TC and HDL level.
• 23 Dec. 2011: 60 ApoE mice arrived at chempartner and were housed in the animal facility in the building #3 for the acclimation. • 6 Jan. 2012: Measured the body weight for each mouse. 50 mice were fed with high fat diet and 10 mice were fed with normal chow diet. • 2 Mar. 2012: All mice were fasted over night and plasma samples (about 300 ul whole blood) were collected for lipid profile measurement before treatment with RAAS antibody. • 19 Mar. 2012 to 6 Apr. […] 2012: All mice were fasted over night and plasma sample for each mouse (about 300 ul whole blood) was collected for lipid profile measurement after 16 weeks treatment. Blood glucose was also measured for each mouse. • 9 Jul. 2012: The study was terminated after 16 weeks treatment. Measure BW, sacrificed each mouse, dissected the aorta, heart, liver and kidney and fixed them in 4% PFA.
Antibody products were administrated by intraperitoneal injection every two days (Monday, Wednesday, and Friday). and the positive compound was administered by p.o every day.
The body weight was weighed weekly during the period of treatment.
The fasting overnight blood glucose was measured at the end of study by Roche glucometer.
About 300 ul of blood sample was collected from the orbital vein for each mouse and centrifuged at 7000 rpm for 5 min at 4° C. and the plasma lipid profile was measured by Roche Modular automatic biochemistry analyzer in DaAn Medical Laboratory
After RAAS antibody products treatment for 16 weeks, all mice were sacrificed. Measured body weight and collected blood sample for each mouse. Weighed liver weight and saved a tiny piece of liver into 4% paraformaldehyde (PFA) fixation solution for further analysis. At same time, take the photos with heart, lung, aortas and two kidneys.
1. Sacrificed the mice and dissected the heart, aorta, and arteries under dissecting microscope.
4. Stain with freshly prepared Oil Red O working solution 10 min. • 1). Oil red O stock stain: 0.5% powder in isopropanol • 2). Working solution: dilute with distilled water (3:2) and filter with membrane (0.22 um)
Scanning the glasses slides with the Aperio ScanScope system and analyze with the image proplus software to measure the area of atherosclerotic plaque lession. The results were expressed as the percentage of the total aortic surface area covered by lesions. The operation procedure of software was briefly described as follow: Converted the sys version photos into JPG version, then calibrated it and subsequently selected the red regions and then calculate the total area automatically by image proplus software.
The results were expressed as the Mean±SEM and statistically evaluated by student's t-test.
Area Percent (%)=Sum Area of Atherosclerotic Plaque (Mm^2)/Whole Area of Vascular Inner Wall (Mm^2)

[8] = tested on: lung cancer cells; assay: KH mediums vs lung cancer cells, in-vitro well study; assay type: cell-based
Source text: From which other companies in China have produced Human Albumin for use in the cell growth instead of feta bovine serum and also
The above have been discovered in In-Vitro well study but not tested for CCK8 to measure the degree of inhibition of the cancer cells by each of the mediums. Such a study has been performed on Oct. 4, 2012 it is amazing to find out that all series of medium from KH100, KH200 and KH300 have different level of effect on the inhibition of the lung cancer, leukemia, gastric and breast both solid tumors and blood cancer have been tested.

C[C@@H]1C[C@H]2[C@@H]3CCC4=CC(=O)C=C[C@]4(C)[C@@]3(F)[C@@H](O)C[C@]2(C)[C@@]1(O)C(=O)CO [Dex, Dexamethasone]
body weight compared with saline group [1]: reduction of body weight

C=C1[C@H](CO)[C@@H](O)C[C@@H]1n1cnc2c(=O)[nH]c(N)nc21 [ETV, Entecavir]
HBV replication in plasma [2]: significant inhibition

Nc1ccn([C@@H]2CS[C@H](CO)O2)c(=O)n1 [Lamivudine]
EC50 [3]: 0.0062 µM

NC(=O)c1ncn([C@@H]2O[C@H](CO)[C@@H](O)[C@H]2O)n1 [Ribavirin]
EC50 [4]: 37.4 µM | EC50 [5]: 39 µM | EC50 [6]: 57.6 µM

APOA 1
Animal Wounded, Total ([7]; high dose 0.1 ml i.p.): 1 | Animal Dead, Total ([7]; high dose 0.1 ml i.p., reason: Fighting): 1 | Animal Wounded, Total ([7]; low dose): 3 | Animal Dead, Total ([7]; low dose, reasons: gastrorrhagia, urinary tract infection (2)): 3 | Animal Wounded, Total ([7]; mid dose 0.075 ml i.p.): 1 | Animal Dead, Total ([7]; mid dose 0.075 ml i.p., reason: Fighting): 1

bovine human albumin: animal protein product
effect on lung cancer cells [8]: inhibited lung cancer cell growth
